Molecular target: T1, Dimer of Gag-Pol polyprotein [489-587] (Human immunodeficiency virus 1, UniProt P12497)
T1 construct: 489-587
Assay: Protease Inhibition Assay
Details: pH 5.5; 30 °C
Experimental: The IC50 values for the compounds were determined using purified HIV-1 Protease. Inhibition of the cleavage of the peptide H-Val-Ser-Gln-Asn-(L-beta-napthylalanine)-Pro-Ile-Val-OH was assessed at 30 °C, pH = 5.5 with [Enzyme] = 30 pM for 1 h, using HPLC with UV detection for quantification of the products. For the IC50 data a substrate concentration of 0.4 mg/mL was used, and data was fit to a four parameter sigmoidal equation.

Compound	IC50
C[C@H]1[C@@H](OC(=O)N[C@@H](Cc2ccccc2)[C@H](O)CN2C[C@H]3CCCC[C@H]3C[C@H]2C(=O)NC(C)(C)C)CCS1(=O)=O [N-tert-butyldecahydro-2-[2(R)-hydroxy-4-phenyl-3(S)-[[[[2 (S)-methyl-(3 S)-l , l-dioxotetrahydrothiophene-3-yl]-oxy]carbonyl]amino]butyl]-(4aS,8aS)-isoquinoline-3(S)-carboxamide]	11.4 nM
C[C@@H]1OCC[C@@H]1OC(=O)N[C@@H](Cc1ccccc1)[C@H](O)CN1C[C@H]2CCCC[C@H]2C[C@H]1C(=O)NC(C)(C)C [(2S,3S)-2-methyloxolan-3-yl N-[(2S,3R)-4-[(3S,4aS,8aS)-3-(tert-butylcarbamoyl)-decahydroisoquinolin-2-yl]-3-hydroxy-1-phenylbutan-2-yl]carbamate]	52.4 nM
C[C@H]1OCC[C@H]1OC(=O)N[C@@H](Cc1ccccc1)[C@H](O)CN1C[C@H]2CCCC[C@H]2C[C@H]1C(=O)NC(C)(C)C [Isoquinoline furanyl urethane analog]	169 nM
C[C@@H]1[C@H](OC(=O)N[C@@H](Cc2ccccc2)[C@H](O)CN2C[C@H]3CCCC[C@H]3C[C@H]2C(=O)NC(C)(C)C)CCS1(=O)=O [N-tert-butyldecahydro-2-[2(R)-hydroxy-4-phenyl-3(S)-[[[[4 (S)-methyl-(3 R)-l , l-dioxotetrahydrothiophene-3-yl]-oxy]carbonyl]amino]butyl]-(4aS,8aS)-isoquinoline-3(S)-carboxamide]	22.3 nM
